Assay results from patent US20090124631A1, “Combination Therapy” (priority 2007, published 2009).

Key:
Type in all cases: biochemical
HDAC8 = target: T1, HDAC8 (Homo sapiens, UniProt Q9BY41); assay: Fluorescence-based HDAC enzyme assay, recombinant HDAC8; settings: recombinant human HDAC enzyme in vitro; read-out: IC50 (μM) HD8
T1 construct: HDAC6 and 8 were cloned as full length N-terminally His-tagged protein; His tag (N); made in house; host or cells: Sf-9 insect cells (baculovirus)
T1 sequence (Q9BY41 1-377): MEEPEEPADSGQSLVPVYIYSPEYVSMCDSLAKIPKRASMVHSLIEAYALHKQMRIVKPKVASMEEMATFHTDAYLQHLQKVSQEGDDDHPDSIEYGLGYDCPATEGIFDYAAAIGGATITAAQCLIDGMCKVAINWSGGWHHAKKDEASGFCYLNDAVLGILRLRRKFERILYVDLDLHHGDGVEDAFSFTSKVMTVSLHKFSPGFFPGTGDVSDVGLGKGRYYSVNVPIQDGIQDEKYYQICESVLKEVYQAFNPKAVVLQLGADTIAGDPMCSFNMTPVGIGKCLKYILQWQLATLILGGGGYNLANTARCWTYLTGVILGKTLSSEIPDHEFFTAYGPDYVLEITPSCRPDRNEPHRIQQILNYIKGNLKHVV
From the text: (§1) cDNAs of human HDAC1-8 and 11 were generated by RT-PCR reactions using primers complementary to the 5′ and 3′ coding sequence of human HDAC gene sequences in GenBank. cDNAs corresponding to the full length human HDAC1, 2, 3 and 11 were cloned into pBlueBac4.5 vector (Invitrogen). The constructs were used to generate recombinant baculoviruses using the Bac-N-Blue™ DNA according to the manufacturer's instructions (Invitrogen). The recombinant HDAC1, 2, 3, 11 proteins produced harbor a FLAG tag at their C-termini. cDNAs encoding truncated versions of HDAC4, 5 and 7 encompassing their deacetylase domains were cloned into pDEST10 as an N-terminal hexahistidine fusion protein and recombinant baculoviruses were generated using the Bac-to-Bac™ Baculovirus expression system (Invitrogen). HDAC6 and 8 were cloned as full length N-terminally His-tagged protein. All HDAC proteins were expressed in insect Sf-9 cells (Spodoptera frugiperdai) upon infection with recombinant baculovirus. HDAC1 enzyme was purified from the Q-sepharose FF column (Amersham Pharmacia Biotech, Baie d'Urfe QC, Canada) followed by an anti-FLAG immunoaffinity column (Sigma). HDAC2, 3 and 11 were purified using Flag-antibody immunoaffinity purification. HDAC4, 5, 6, 7 and 8 were purified using either Ni-NTA resin (QIAGEN Mississauga ON, Canada) or His-Select resin (Sigma) with step washes and elution with different concentrations of imidazole in Buffer containing 25 mM Tris (or NaPO4) pH 8.0, 10% glycerol and 150 mM or 500 mM NaCl.
(§2) Recombinant HDAC enzymes were incubated with diluted compounds in assay buffer (25 mM Hepes, pH 8.0, 137 mM NaCl, 1 mM MgCl2 and 2.7 mM KCl) for 10 minutes at ambient temperatures in black 96-well plate. Boc-Lys(Ac)-AMC (for HDAC1, 2, 3, 6, and 8 enzymes), which was purchased from Bachem Biosciences Inc., (King of Prussia, Philadelphia) were added into enzyme-compound mixture and incubated at 37° C. For HDAC4, 5, 7 assays, Boc-Lys(TFA)-AMC, which was synthesized in house, was used as substrate and 0.1% BSA was added to the buffer. […] Reaction time was predetermined to ensure that reaction was linear for the incubation time. Reaction was stopped by adding a freshly prepared trypsin (1 mg/ml final concentration) with 1 μM TSA (Biomol) in assay buffer. After 30 minutes, fluorescence was measured using a fluorometer (SPECTRAMAX GeminiXS, Molecular Devices, Sunnylvale, Calif.). The 50% inhibitory concentrations (IC50) for inhibitors were determined by analyzing dose-response inhibition curves.

[1] = test system: recombinant human HDAC enzymes; assay: HDAC isotype selectivity across recombinant HDAC enzymes; settings: from Table 1
From the text: as §1, with “HDAC2, 3 and 11 were purified using Flag-antibody immunoaffinity purification.” left out
as §2, with “Boc-Lys(Ac)-AMC” for “Recombinant HDAC enzymes were incubated with diluted compounds in assay buffer (25 mM Hepes, pH 8.0, 137 mM NaCl, 1 mM MgCl2 and 2.7 mM KCl) for 10 minutes at ambient temperatures in black 96-well plate. Boc-Lys(Ac)-AMC”, “Calif.).” for “Calif.). The 50% inhibitory concentrations (IC50) for inhibitors were determined by analyzing dose-response inhibition curves.”

HDAC2 = target: T2, HDAC2 (Homo sapiens, UniProt Q92769); assay: Fluorescence-based HDAC enzyme assay, recombinant HDAC2; settings: recombinant human HDAC enzyme in vitro; read-out: IC50 (μM) HD2
T2 construct: cDNAs corresponding to the full length human HDAC1, 2, 3 and 11 were cloned into pBlueBac4.5 vector; FLAG (C); made in house; host or cells: Sf-9 insect cells (baculovirus)
From the text: as §1, with “HDAC2, 3 and 11 were purified using Flag-antibody immunoaffinity purification.” left out
as §2, with “Boc-Lys(Ac)-AMC” for “Recombinant HDAC enzymes were incubated with diluted compounds in assay buffer (25 mM Hepes, pH 8.0, 137 mM NaCl, 1 mM MgCl2 and 2.7 mM KCl) for 10 minutes at ambient temperatures in black 96-well plate. Boc-Lys(Ac)-AMC”, “Calif.).” for “Calif.). The 50% inhibitory concentrations (IC50) for inhibitors were determined by analyzing dose-response inhibition curves.”

HDAC1 = target: T3, HDAC1 (Homo sapiens, UniProt Q13547); assay: Fluorescence-based HDAC enzyme assay, recombinant HDAC1; settings: recombinant human HDAC enzyme in vitro; read-out: IC50 (μM) HD1
T3 construct: cDNAs corresponding to the full length human HDAC1, 2, 3 and 11 were cloned into pBlueBac4.5 vector; FLAG (C); made in house; host or cells: Sf-9 insect cells (baculovirus)
From the text: as §1, with “HDAC2, 3 and 11 were purified using Flag-antibody immunoaffinity purification.” left out
as §2, with “Boc-Lys(Ac)-AMC” for “Recombinant HDAC enzymes were incubated with diluted compounds in assay buffer (25 mM Hepes, pH 8.0, 137 mM NaCl, 1 mM MgCl2 and 2.7 mM KCl) for 10 minutes at ambient temperatures in black 96-well plate. Boc-Lys(Ac)-AMC”, “Calif.).” for “Calif.). The 50% inhibitory concentrations (IC50) for inhibitors were determined by analyzing dose-response inhibition curves.”

T3 sequence (Q13547 whole entry): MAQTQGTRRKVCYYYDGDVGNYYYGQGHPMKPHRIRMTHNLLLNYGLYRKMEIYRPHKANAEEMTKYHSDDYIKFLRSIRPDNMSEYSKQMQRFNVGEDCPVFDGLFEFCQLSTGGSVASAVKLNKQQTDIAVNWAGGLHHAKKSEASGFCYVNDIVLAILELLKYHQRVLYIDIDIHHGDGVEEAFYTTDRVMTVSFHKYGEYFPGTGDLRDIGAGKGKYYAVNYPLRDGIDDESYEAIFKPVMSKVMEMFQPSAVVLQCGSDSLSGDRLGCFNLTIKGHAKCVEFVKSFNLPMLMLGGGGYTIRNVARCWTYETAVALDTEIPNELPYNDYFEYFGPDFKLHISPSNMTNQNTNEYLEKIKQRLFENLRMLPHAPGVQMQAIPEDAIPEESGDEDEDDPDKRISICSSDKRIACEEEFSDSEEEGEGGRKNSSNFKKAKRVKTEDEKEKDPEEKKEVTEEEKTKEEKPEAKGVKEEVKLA
T2 sequence (Q92769 whole entry): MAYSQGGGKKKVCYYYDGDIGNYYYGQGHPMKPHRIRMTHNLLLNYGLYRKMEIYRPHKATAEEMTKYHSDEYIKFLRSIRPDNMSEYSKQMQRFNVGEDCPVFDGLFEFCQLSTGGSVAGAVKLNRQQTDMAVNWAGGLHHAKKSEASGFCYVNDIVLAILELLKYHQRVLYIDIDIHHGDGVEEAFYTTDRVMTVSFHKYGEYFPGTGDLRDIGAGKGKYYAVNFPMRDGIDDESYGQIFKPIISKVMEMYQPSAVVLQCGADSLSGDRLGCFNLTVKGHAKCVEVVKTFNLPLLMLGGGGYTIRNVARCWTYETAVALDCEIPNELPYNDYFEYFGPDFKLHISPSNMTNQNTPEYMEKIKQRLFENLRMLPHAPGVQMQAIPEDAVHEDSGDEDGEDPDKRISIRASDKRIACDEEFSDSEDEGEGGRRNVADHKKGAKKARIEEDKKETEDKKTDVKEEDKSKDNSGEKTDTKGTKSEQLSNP

Structure (SMILES)	IC50 (HDAC8)	HDAC isotype selectivity [1]	IC50 (HDAC2)	IC50 (HDAC1)
CN1CCN(c2ccc(C(=O)Nc3cc(-c4ccccn4)ccc3N)cc2)CC1 [Compound F]	> 10 µM	selective for HDAC1 and HDAC 2	0.1 µM	0.1 µM
CN1CCN(c2ccc(C(=O)Nc3cc(-c4ccncc4)ccc3N)cc2)CC1 [Compound G]	> 10 µM	selective for HDAC1 and HDAC 2	0.1 µM	0.06 µM
CC(C)N1CCN(c2ccc(C(=O)Nc3cc(-c4ccncc4)ccc3N)cc2)CC1 [Compound H]	> 10 µM	selective for HDAC1 and HDAC 2	0.09 µM	0.06 µM

Other lines, results leading:

IC50 (HDAC8)	HDAC isotype selectivity [1]	IC50 (HDAC2)	IC50 (HDAC1)	Structure (SMILES)
1.63 µM	selective inhibitors of HDAC1, 2 and 3	0.5 µM	0.2 µM	Nc1ccccc1NC(=O)c1ccc(N2CC[C@H](Nc3cccnc3)C2)cc1 [Compound B]
> 10 µM	selective for HDAC1 and HDAC 2	0.09 µM	0.04 µM	Nc1ccc(-c2ccccc2)cc1NC(=O)c1ccc(N2CC[C@H](N)C2)cc1 [Compound D]
> 10 µM	selective for HDAC1 and HDAC 2	0.08 µM	0.02 µM	Nc1ccc(-c2ccccc2)cc1NC(=O)c1ccc(N2CCC(N)CC2)cc1 [Compound E]
